Measurements published in patent publication US8450286B2, “Method for treating cancers having high glucose requirements employing an SGLT2 inhibitor and compositions thereof” (Bristol-Myers Squibb Company, priority 2008, dated 2013).

How the values were obtained:
[1] = system: subjects with type 2 diabetes; conditions: 14-day multiple ascending dose, compared to placebo, FIG. 2
Excerpt: Results from the 24-hour glucose excretion are shown in FIG. 2 for all subjects in the MB-102003 study. The mean urine glucose is in the darker lines.

healthy subjects = healthy subjects taking 5, 20, 50 or 100 mg; versus known SGLT2 inhibitor GSK 869,682 (50, 100, 200 or 500 mg); FIG. 1
Description: The panel at the top of FIG. 1 is from a presentation by GSK in an analyst meeting, showing the amount of glucose excretion/day in healthy subjects taking 50, 100, 200 or 500 mg of GSK 869,682. The panel at the bottom is from study MB-102001, showing the amount of glucose excretion/day in healthy subjects taking 5, 20, 50 or 100 mg of compound Ia.

SMILES: CCOc1ccc(Cc2cc([C@@H]3O[C@H](CO)[C@@H](O)[C@H](O)[C@H]3O)ccc2Cl)cc1 [compound Ia]
- 24-hour urine glucose excretion [1]: higher urine glucose excretion
- glucosuric effect: loss of calories in the urine (glucose excretion/day) (healthy subjects): significant loss of calories in the urine
